The assay deals with T1, KDM5A (Homo sapiens, UniProt P29375).
T1 construct: Full length KDM5A enzyme was expressed and purified inhouse; made in house
The assay can be described thus: KDM5 enzyme assay, KDM5A HTRF (Example 463). It is filed as biochemical. The following applies: compounds of Examples 1-432; read-out: Example 463 Assay KDM5A HTRF IC50. (TR-FRET usually uses a lanthanide donor and a delayed reading to cut background.)

The IC50 is the midpoint of a concentration-inhibition curve.

T1 sequence (P29375 whole entry): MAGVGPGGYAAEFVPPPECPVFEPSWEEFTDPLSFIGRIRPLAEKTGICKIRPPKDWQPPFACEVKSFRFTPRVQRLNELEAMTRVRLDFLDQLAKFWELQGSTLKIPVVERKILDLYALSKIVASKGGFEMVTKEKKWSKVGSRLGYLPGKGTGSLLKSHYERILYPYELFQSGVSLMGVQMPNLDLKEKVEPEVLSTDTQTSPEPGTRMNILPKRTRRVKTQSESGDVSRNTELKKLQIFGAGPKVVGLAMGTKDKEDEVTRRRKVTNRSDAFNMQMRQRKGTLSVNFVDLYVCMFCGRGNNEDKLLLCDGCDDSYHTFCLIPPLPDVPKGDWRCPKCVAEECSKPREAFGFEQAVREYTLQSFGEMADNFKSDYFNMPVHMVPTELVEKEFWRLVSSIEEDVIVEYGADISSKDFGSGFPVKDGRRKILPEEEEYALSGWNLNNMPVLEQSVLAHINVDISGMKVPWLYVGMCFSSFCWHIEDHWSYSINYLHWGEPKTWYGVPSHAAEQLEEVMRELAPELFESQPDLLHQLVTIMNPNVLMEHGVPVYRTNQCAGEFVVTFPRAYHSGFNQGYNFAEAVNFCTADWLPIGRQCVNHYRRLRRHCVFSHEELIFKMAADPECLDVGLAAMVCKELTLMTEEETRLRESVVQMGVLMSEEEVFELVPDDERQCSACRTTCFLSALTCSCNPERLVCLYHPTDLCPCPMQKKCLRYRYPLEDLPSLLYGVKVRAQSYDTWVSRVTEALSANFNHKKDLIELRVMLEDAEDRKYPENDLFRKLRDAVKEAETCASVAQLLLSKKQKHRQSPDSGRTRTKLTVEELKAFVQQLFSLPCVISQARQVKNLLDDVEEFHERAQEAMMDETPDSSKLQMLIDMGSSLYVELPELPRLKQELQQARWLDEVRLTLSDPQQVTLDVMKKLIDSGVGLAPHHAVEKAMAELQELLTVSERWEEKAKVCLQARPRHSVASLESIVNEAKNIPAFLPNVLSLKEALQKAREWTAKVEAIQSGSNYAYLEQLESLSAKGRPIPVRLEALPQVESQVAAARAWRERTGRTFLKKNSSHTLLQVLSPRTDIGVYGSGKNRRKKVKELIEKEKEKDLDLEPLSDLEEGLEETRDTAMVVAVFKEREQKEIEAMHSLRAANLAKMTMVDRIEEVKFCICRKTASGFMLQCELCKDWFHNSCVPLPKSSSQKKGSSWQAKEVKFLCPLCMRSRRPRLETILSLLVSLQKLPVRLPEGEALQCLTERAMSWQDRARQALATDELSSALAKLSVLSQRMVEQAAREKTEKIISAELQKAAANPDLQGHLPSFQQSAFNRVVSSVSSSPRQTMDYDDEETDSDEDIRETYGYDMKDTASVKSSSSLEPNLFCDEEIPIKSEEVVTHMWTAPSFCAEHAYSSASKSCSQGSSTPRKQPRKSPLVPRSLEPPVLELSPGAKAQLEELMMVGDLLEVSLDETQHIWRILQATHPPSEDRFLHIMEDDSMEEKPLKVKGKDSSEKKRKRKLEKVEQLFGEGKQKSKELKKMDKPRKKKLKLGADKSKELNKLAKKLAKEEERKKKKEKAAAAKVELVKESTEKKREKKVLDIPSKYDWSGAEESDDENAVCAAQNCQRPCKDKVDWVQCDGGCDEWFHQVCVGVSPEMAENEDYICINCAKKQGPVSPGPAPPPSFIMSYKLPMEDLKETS

Regarding `CC(C)c1c(-c2ccnn2C(C)C)[nH]c2c(C#N)cnn2c1=O` [Compound 415], the IC50 stood at 77 nM. With `CNC(=O)c1cc(-c2[nH]c3c(C#N)cnn3c(=O)c2C(C)C)cn1C(C)C` [Compound 416], the IC50 is 48 nM. For `CC(C)c1c(-c2cc(C(=O)N(C)C)n(C(C)C)c2)[nH]c2c(C#N)cnn2c1=O` [Compound 417], the IC50 worked out at 31 nM. With `CC(C)c1c(-c2ccn(CCC3CC3)n2)[nH]c2c(C#N)cnn2c1=O` [Compound 418], the concentration for half-maximal inhibition (IC50) was 13 nM. Next, `CC(C)c1c(-c2ccnn2CCC2CC2)[nH]c2c(C#N)cnn2c1=O` [Compound 419]: 88 nM; `CCn1ccc(-c2[nH]c3c(C#N)cnn3c(=O)c2C(C)C)n1` [Compound 420]: 23 nM. Consider `CCc1c(-c2cccc(N3CCCC3=O)c2)[nH]c2c(C#N)cnn2c1=O` [Compound 421], for which the IC50 came out at 19 nM. Turning to `CCc1c(-c2cccc(N3CCC(C)(C)C3=O)c2)[nH]c2c(C#N)cnn2c1=O` [Compound 422], the IC50 came to 29 nM. Take `CCc1c(-c2cccc(N3CCC(c4ccccc4)C3=O)c2)[nH]c2c(C#N)cnn2c1=O` (centres unmarked) [Compound 423]: the IC50 was 20 nM. As to `CC(C)c1c(-c2cccc(N3CCC(c4ccccc4)C3=O)c2)[nH]c2c(C#N)cnn2c1=O` (centres unmarked) [Compound 424], the half-inhibitory concentration (IC50) was 8 nM. `C=CCc1c(-c2cnn(C(C)C)c2)[nH]c2c(C#N)cnn2c1=O` [Compound 425]: the IC50 is 16 nM. Consider `CCc1c(-c2cccc(/C=C/c3ccccc3)c2)[nH]c2c(C#N)cnn2c1=O` [Compound 426], for which the IC50 was 23 nM.

Consider `CC(C)c1c(-c2cccc(-c3cccc(C#N)c3)c2)[nH]c2c(C#N)cnn2c1=O` [Compound 427], for which the IC50 stood at 39 nM. For the compound `CC(C)c1c(-c2cccc(-c3cccc(NS(C)(=O)=O)c3)c2)[nH]c2c(C#N)cnn2c1=O` [Compound 428], the IC50 is 14 nM.

In the case of `CC(C)c1c(-c2cccc(-c3ccc(NS(C)(=O)=O)cc3)c2)[nH]c2c(C#N)cnn2c1=O` [Compound 429], the IC50 was 27 nM.

As for `CNS(=O)(=O)c1ccc(-c2cccc(-c3[nH]c4c(C#N)cnn4c(=O)c3C(C)C)c2)cc1` [Compound 430], the half-maximal inhibitory concentration (IC50) was 32 nM. As to `CC(C)n1cc(-c2[nH]c3c(C#N)cnn3c(=O)c2C2CCC2)cn1` [Compound 431], the IC50 stood at 21 nM. The same measure for `CC(C)n1cc(-c2[nH]c3c(C#N)cnn3c(=O)c2C2(C)CCC2)cn1` [Compound 432]: 56 nM. The same measure for `CC(C)c1c(Cl)[nH]c2c(C#N)cnn2c1=O` [Example 1, 5-chloro-6-isopropyl-7-oxo-4,7-dihydropyrazolo[1,5-a]pyrimidine-3-carbonitrile]: 4.3 nM. Regarding `CCc1c(Cl)[nH]c2c(C#N)cnn2c1=O` [Example 2, 5-chloro-6-ethyl-7-oxo-4,7-dihydropyrazolo[1,5-a]pyrimidine-3-carbonitrile], the IC50 is 3 nM. Regarding `CC(C)c1c(-c2ccoc2)[nH]c2c(C#N)cnn2c1=O` [Example 3, 5-(furan-3-yl)-6-isopropyl-7-oxo-4,7-dihydropyrazolo[1,5-a]pyrimidine-3-carbonitrile], the concentration for half-maximal inhibition (IC50) is 3.8 nM. As to `CC(C)c1c(-c2ccoc2)n(C)c2c(C#N)cnn2c1=O` [Example 4, 5-(furan-3-yl)-6-isopropyl-4-methyl-7-oxo-4,7-dihydropyrazolo[1,5-a]pyrimidine-3-carbonitrile], the IC50 amounted to 65 nM. For `CC(C)c1c(-c2cn[nH]c2)[nH]c2c(C#N)cnn2c1=O` [Example 5, 6-Isopropyl-7-oxo-5-(1H-pyrazol-4-yl)-4,7-dihydropyrazolo[1,5-a]pyrimidine-3-carbonitrile], the IC50 was determined as 5.5 nM. For the compound `CC(C)c1c(-c2cnn(CC3CC3)c2)[nH]c2c(C#N)cnn2c1=O` [Example 6, 5-(1-(Cyclopropylmethyl)-1H-pyrazol-4-yl)-6-isopropyl-7-oxo-4,7-dihydropyrazolo[1,5-a]pyrimidine-3-carbonitrile], the IC50 came to 13 nM. As to `CC(C)c1c(-c2cnn(C3(C)CC3)c2)[nH]c2c(C#N)cnn2c1=O` [Example 7, 6-Isopropyl-5-(1-(1-methylcyclopropyl)-1H-pyrazol-4-yl)-7-oxo-4,7-dihydropyrazolo[1,5-a]pyrimidine-3-carbonitrile], the IC50 amounted to 30 nM. As for `CC(C)c1c(-c2cn(C(C)C)nc2F)[nH]c2c(C#N)cnn2c1=O` [Example 8, 5-(3-Fluoro-1-isopropyl-1H-pyrazol-4-yl)-6-isopropyl-7-oxo-4,7-dihydropyrazolo[1,5-a]pyrimidine-3-carbonitrile], the IC50 came out at 22 nM. Take `CC(C)c1c(-c2cnn(C(C)(C)c3ccccc3)c2)[nH]c2c(C#N)cnn2c1=O` [Example 9, 6-Isopropyl-7-oxo-5-(1-(2-phenylpropan-2-yl)-1H-pyrazol-4-yl)-4,7-dihydropyrazolo[1,5-a]pyrimidine-3-carbonitrile]: the IC50 stood at 40 nM. The same measure for `CC(C)c1c(-c2cnn(-c3cccnc3)c2)[nH]c2c(C#N)cnn2c1=O` [Example 10, 6-Isopropyl-7-oxo-5-(1-(pyridin-3-yl)-1H-pyrazol-4-yl)-4,7-dihydropyrazolo[1,5-a]pyrimidine-3-carbonitrile]: 24 nM; for `CC(C)c1c(-c2cnn(-c3ccncc3)c2)[nH]c2c(C#N)cnn2c1=O` [Example 11, 6-Isopropyl-7-oxo-5-(1-(pyridin-4-yl)-1H-pyrazol-4-yl)-4,7-dihydropyrazolo[1,5-a]pyrimidine-3-carbonitrile]: 14 nM.

As to `CC(C)c1c(-c2cnn(-c3ccccn3)c2)[nH]c2c(C#N)cnn2c1=O` [Example 12, 6-Isopropyl-7-oxo-5-(1-(pyridin-2-yl)-1H-pyrazol-4-yl)-4,7-dihydropyrazolo[1,5-a]pyrimidine-3-carbonitrile], the IC50 is 18 nM. Regarding `CNC(=O)C(C)(C)n1cc(-c2[nH]c3c(C#N)cnn3c(=O)c2C(C)C)cn1` [Example 13, 2-(4-(3-Cyano-6-isopropyl-7-oxo-4,7-dihydropyrazolo[1,5-a]pyrimidin-5-yl)-1H-pyrazol-1-yl)-N,2-dimethylpropanamide], the concentration for half-maximal inhibition (IC50) was found to be 23 nM. With `CC(C)c1c(-c2cnn(C(C)C)c2F)[nH]c2c(C#N)cnn2c1=O` [Example 14, 5-(5-Fluoro-1-isopropyl-1H-pyrazol-4-yl)-6-isopropyl-7-oxo-4,7-dihydropyrazolo[1,5-a]pyrimidine-3-carbonitrile], the IC50 was determined as 5.3 nM.

Take `CC(C)c1c(-c2cnn(C3CCSCC3)c2)[nH]c2c(C#N)cnn2c1=O` [Example 17, 6-isopropyl-7-oxo-5-(1-(tetrahydro-2H-thiopyran-4-yl)-1H-pyrazol-4-yl)-4,7-dihydropyrazolo[1,5-a]pyrimidine-3-carbonitrile]: the IC50 was determined as 41 nM. For the compound `CC(C)c1c(-c2cnn(C3CCS(=O)(=O)CC3)c2)[nH]c2c(C#N)cnn2c1=O` [Example 18, 5-(1-(1,1-Dioxidotetrahydro-2H-thiopyran-4-yl)-1H-pyrazol-4-yl)-6-isopropyl-7-oxo-4,7-dihydropyrazolo[1,5-a]pyrimidine-3-carbonitrile], the half-inhibitory concentration (IC50) was determined as 21 nM.

On to `CC(=O)/C=C/c1cccc(Cn2cc(-c3[nH]c4c(C#N)cnn4c(=O)c3C(C)C)cn2)n1` [Example 19, (E)-6-isopropyl-7-oxo-5-(1-((6-(3-oxobut-1-en-1-yl)pyridin-2-yl)methyl)-1H-pyrazol-4-yl)-4,7-dihydropyrazolo[1,5-a]pyrimidine-3-carbonitrile], for which the IC50 stood at 55 nM.

Source of the values: patent US10035801B2, “Pyrazolo compounds and uses thereof” (CONSTELLATION PHARMACEUTICALS, INC., priority 2013, dated 2018).
